From US20130137706A1, “Antimicrobial Molecules For Treating Multi-Drug Resistant and Extensively Drug Resistant Strains Of Mycobacterium” (POLYMEDIX, INC., priority 2008, published 2013)
Values after ≈ are worked out from the molar mass of the structure shown. Like-named read-outs stand apart in the source and are kept apart here.

Assays:
[1] = system: monkey VERO cells; test: VERO cell cytotoxicity assay (luminescent ATP cell viability, 72 hour exposure); type: cell-based; settings: Primates
[2] = system: M. tuberculosis (H37Rv strain); test: Microplate Alamar Blue Assay (MABA) susceptibility assay in BACTEC 12B medium; type: cell-based; settings: Mycobacterium tuberculosis
[3] = Vero, summary of Table 1, read-out: EC50 value (v. Monkey VERO Cells)
[4] = VERO cells, 72 hour exposure, ATP luminescence, read-out: EC50 VERO cells
[5] = H37Rv strain, MABA, 90% reduction in fluorescence relative to controls, read-out: IC90 M. tuberculosis (H37Rv strain)
[6] = Table 1, H37Rv strain, read-out: IC90 value (v. M. tuberculosis)

| Compound | EC50 [1, 3] [µg/mL] | EC50 [1, 4] [µg/mL] | IC90 [2, 5] [µg/mL] | IC90 [2, 6] [µg/mL] |
| --- | --- | --- | --- | --- |
| N=C(N)NCCCCC(=O)Nc1cccc(NC(=O)c2cc(C(=O)Nc3cccc(NC(=O)CCCCNC(=N)N)c3SCCN)ncn2)c1SCCN [Compound 3] | > 100 | > 100 | 3.6 (≈ 4.61 µM) | < 5 |
| CC(C)(C)c1cc(N)c(SCCNC(=N)N)c(NC(=O)c2cc(C(=O)Nc3cc(C(C)(C)C)cc(N)c3SCCNC(=N)N)c(OCCNC(=N)N)cc2OCCNC(=N)N)c1 [Compound 2] | > 300 | > 300 | 4.5 (≈ 5.03 µM) | < 5 |
| CC(C)(C)c1cc(N)c(SCCNC(=N)N)c(NC(=O)c2cc(OCCNC(=N)N)cc(C(=O)Nc3cc(C(C)(C)C)cc(N)c3SCCNC(=N)N)c2)c1 [Compound 1] | > 300 | > 300 | 2.2 (≈ 2.77 µM) | < 5 |
| CC(C)(C)c1cc(NC(=O)CCCCNC(=N)N)c(SCCN)c(NC(=O)Nc2cc(C(C)(C)C)cc(NC(=O)CCCCNC(=N)N)c2SCCN)c1 [Compound 4] | > 300 | > 300 | 18.4 (≈ 23.4 µM) | < 20 |
